These results are taken from article PMC10005547, “Development of Highly Efficient Estrogen Receptor β-Targeted Near-Infrared Fluorescence Probes Triggered by Endogenous Hydrogen Peroxide for Diagnostic Imaging of Prostate Cancer” (Molecules, 2023).

Molecules are shown by their SMILES.

The target in one data set is T1, ERα (Homo sapiens, UniProt P03372).
T1 construct: gene ESR1
T1 sequence (P03372 1-595): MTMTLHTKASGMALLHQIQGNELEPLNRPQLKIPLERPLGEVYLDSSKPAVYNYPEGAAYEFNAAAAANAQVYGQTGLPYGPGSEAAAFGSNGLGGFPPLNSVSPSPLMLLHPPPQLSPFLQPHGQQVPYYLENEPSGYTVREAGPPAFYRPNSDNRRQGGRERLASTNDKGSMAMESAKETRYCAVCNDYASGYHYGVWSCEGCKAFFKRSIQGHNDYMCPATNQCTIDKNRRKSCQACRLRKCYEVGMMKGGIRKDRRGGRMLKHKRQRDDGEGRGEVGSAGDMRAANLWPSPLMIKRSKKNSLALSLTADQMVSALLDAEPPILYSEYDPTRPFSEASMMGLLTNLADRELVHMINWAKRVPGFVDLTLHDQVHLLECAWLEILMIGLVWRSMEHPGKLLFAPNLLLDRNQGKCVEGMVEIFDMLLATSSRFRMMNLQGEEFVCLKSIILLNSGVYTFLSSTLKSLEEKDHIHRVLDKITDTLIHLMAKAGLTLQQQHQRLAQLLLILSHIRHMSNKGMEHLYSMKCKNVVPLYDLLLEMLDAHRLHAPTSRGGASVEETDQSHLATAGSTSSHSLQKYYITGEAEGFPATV
The data set can be described thus: fluorescence polarization competition against a fluorescent ligand. The class given is binding. In general terms: In fluorescence polarisation assays a small probe gives low polarisation when free and higher when bound to something large.

Another data set is described as follows: in vitro. The note with it: human, mcf-10a cells; read-out: MCF-10A (IC50). Details: CCK-8 cell viability assay, absorbance at 450 nm. As for the experimental part:
Normal breast cells MCF-10A and prostate cancer cells DU-145 (purchased from ATCC, Rockville, MD, USA), breast cancer cells MCF-7 (purchased from the Type Culture Collection of the Chinese Academy of Sciences, Shanghai, China) were cultured in a phenol red DMEM [compound left out] medium supplemented with 10% fetal bovine serum. When the cell density reached 80% to 90%, the cells were digested, and the cell suspension was spread into 96-well cell culture plates with a phenol red-free DMEM medium containing 10% CS. After the cells were completely adherent, the original culture medium was discarded, and 100 μL of fresh compound solution prepared with the DMEM medium containing 10% CS were added to each well. The concentration gradient of the compound is: 1 × 10^−7.5 M, 1 × 10^−7 M, 1 × 10^−6.5 M, 1 × 10^−6 M, 1 × 10^−5.5 M, 1 × 10^−5 M, 1 × 10^−4.5 M, 1 × 10^−4 M. After 4 days of drug-treated culture, the culture plate was removed, the culture medium was aspirated, 100 μL CCK-8 working solution was added to each well and incubated for 1.5–2 h at 37 °C in a 5% CO2 incubator. The plate was read on the microplate reader, the wavelength at 450 nm was selected as the reference wavelength, the experimental results were analyzed, and the IC50 was calculated. […]

For the next data set, the system named is DU-145. The data set can be described thus: cells. The note with it: Homo sapiens, DU-145, 96 h. Also noted: CCK-8 cell viability assay, absorbance at 450 nm. As for the experimental part: (§1) Normal breast cells MCF-10A and prostate cancer cells DU-145 (purchased from ATCC, Rockville, MD, USA), breast cancer cells MCF-7 (purchased from the Type Culture Collection of the Chinese Academy of Sciences, Shanghai, China) were cultured in a phenol red DMEM [compound left out] medium supplemented with 10% fetal bovine serum. When the cell density reached 80% to 90%, the cells were digested, and the cell suspension was spread into 96-well cell culture plates with a phenol red-free DMEM medium containing 10% CS. After the cells were completely adherent, the original culture medium was discarded, and 100 μL of fresh compound solution prepared with the DMEM medium containing 10% CS were added to each well. The concentration gradient of the compound is: 1 × 10^−7.5 M, 1 × 10^−7 M, 1 × 10^−6.5 M, 1 × 10^−6 M, 1 × 10^−5.5 M, 1 × 10^−5 M, 1 × 10^−4.5 M, 1 × 10^−4 M. After 4 days of drug-treated culture, the culture plate was removed, the culture medium was aspirated, 100 μL CCK-8 working solution was added to each well and incubated for 1.5–2 h at 37 °C in a 5% CO2 incubator. The plate was read on the microplate reader, the wavelength at 450 nm was selected as the reference wavelength, the experimental results were analyzed, and the IC50 was calculated. To investigate the toxicity of P1 and P2 on normal cells and their inhibitory activity on cancer cells before performing cellular imaging, we tested the effects of P1 and P2 on MCF-10A normal breast cells, MCF-7 breast cancer cells with high ERα expression, and DU-145 prostate cancer cells with high ERβ expression by using CCK-8 assays (Table S1). […] However, P1 was not toxic to any of these three cell lines.

The test system of the next data set is MCF-7. Nature of the data set: cells. Also noted: CCK-8 cell viability assay, absorbance at 450 nm. The note with it: Homo sapiens, MCF7, 96 h. As for the experimental part:
as §1

The next data set concerns the target T2, ERβ (Homo sapiens, UniProt Q92731).
T2 construct: gene ESR2
Nature of the data set: fluorescence polarization competition against a fluorescent ligand. The class given is binding.

T2 sequence (Q92731 whole entry): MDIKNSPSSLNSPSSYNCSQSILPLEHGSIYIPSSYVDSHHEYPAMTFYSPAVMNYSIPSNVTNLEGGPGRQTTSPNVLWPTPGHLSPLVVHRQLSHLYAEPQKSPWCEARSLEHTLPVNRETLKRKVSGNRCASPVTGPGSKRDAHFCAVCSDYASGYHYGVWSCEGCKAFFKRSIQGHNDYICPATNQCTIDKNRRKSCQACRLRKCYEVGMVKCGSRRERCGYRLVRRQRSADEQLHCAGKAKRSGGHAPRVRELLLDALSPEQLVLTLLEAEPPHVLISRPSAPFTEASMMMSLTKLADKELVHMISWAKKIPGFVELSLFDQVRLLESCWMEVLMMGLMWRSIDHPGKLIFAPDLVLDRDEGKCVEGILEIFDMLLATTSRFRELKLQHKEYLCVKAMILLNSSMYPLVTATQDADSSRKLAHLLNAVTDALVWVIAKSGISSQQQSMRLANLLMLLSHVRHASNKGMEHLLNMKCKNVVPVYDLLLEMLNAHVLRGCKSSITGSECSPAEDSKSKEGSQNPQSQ

As a reminder, the Ki is the equilibrium dissociation constant of an inhibitor or competing ligand from its target. The low end stands for higher affinity, the high end for lower affinity. As a reminder, the IC50 is the concentration that inhibits the measured activity by half. `C=CS(=O)(=O)Oc1ccc2c(c1)C(=C(C#N)C#N)C=C(/C=C/c1ccc(B3OC(C)(C)C(C)(C)O3)cc1)O2` [P2, (E)-4-(Dicyanomethylene)-2-(4-(4,4,5,5-tetramethyl-1,3,2-dioxaborolan-2-yl)styryl)-4H-chromen-6-yl ethenesulfonate]: the Ki on ERα was determined as 8.73 ± 0.01 µM; on ERβ, 1.21 ± 0.03 µM. In the data set “in vitro”, the CC50 at 96 h was more than 100 µM. Also, the IC50 is more than 100 µM in the data set on DU-145 and 16.3 ± 4.42 µM with MCF-7.

For `CC1(C)OB(c2ccc(/C=C/C3=CC(=C(C#N)C#N)c4cc(O)ccc4O3)cc2)OC1(C)C` [P1, (E)-2-(6-Hydroxy-2-(4-(4,4,5,5-tetramethyl-1,3,2-dioxaborolan-2-yl)styryl)-4H-chromen-4-ylidene)malononitrile], the results for the inhibition constant Ki at ERα and at ERβ were 4.36 ± 0.01 µM and 1.42 ± 0.02 µM, respectively. For the same compound, in “in vitro”, the CC50 at 96 h was more than 100 µM. The IC50 in the data set on DU-145 and in the data set with MCF-7 was more than 100 µM in each case.
